Assay results reported in patent US20100143455A1, “Triazole antifungal agents” (priority 2008, published 2010).

Columns and labels:
[1] = tested on: Ergosterol Biosynthesis, Candida albicans_C286; experiment: Inhibition of ergosterol biosynthesis; assay type: cell-based, Candida albicans; settings: RPMI-1640, 30° C., 48 h, read-out: IC50 Values for Inhabitation of Ergosterol Biosynthesis
Experimental: (§1) Compounds of the invention were tested for their ability to inhibit ergosterol biosynthesis. Testing was performed in 96-well round-bottom microtitration plates. Cell suspensions were prepared in RPMI-1640 medium and were adjusted to give a final inoculum concentration of 0.5×10^3 to 2.5×10^3 cells/ml. The plates were incubated incubated at 30° C. for 48 h before growth was assessed. The MIC of each compounds was defined as the lowest concentration at which there was 80% inhibition of growth compared with that in a drug-free control [O. N. Breivik and J. L. Owades, Agric. Food Chem., 5 (1957) 360-363; T. F. Patterson, S. G. Revankar, W. R. Kirkpatrick, O. Dib, A. W. Fothergill, S. W. Redding, D. A. Sutton and M. G. Rinaldi, J. Clin. Microbiol., 34 (1996) 1794-1797]. Ergosterol content was calculated as a percentage of the wet weight of the cell [National Committee for Clinical Laboratory Standards. 1997. Reference method for broth dilution antifungal susceptibility testing of yeasts, Approved standard. Document M27-A, National Committee for Clinical Laboratory Standards, Wayne, Pa.].

[2] = tested on: Ergosterol Biosynthesis, Aspergillus fumigatus_ND 158; experiment: Inhibition of ergosterol biosynthesis; assay type: cell-based, Aspergillus fumigatus; settings: RPMI-1640, 30° C., 48 h, read-out: IC50 Values for Inhabitation of Ergosterol Biosynthesis
Experimental: as §1

[3] = tested on: Cryptococcus neoformans; experiment: In vitro activity test, agar dilution method (GMMIC); assay type: cell-based; settings: 10 organisms, Kimmig's agar, 25° C.
Experimental: (§2) Organisms listed in Table 4 were tested according to an agar dilution method: Suspensions of each microorganism were prepared to contain […] colony forming units (cfu)/mL. All drugs were dissolved in a few drops of DMSO then diluted with ethanol—water (1/1, v/v) to make a stock solution of 500 μg/mL. The agar dilution method was performed in a medium of Kimmig's agar (K. A., Merck) −0.5% glycerol [R. A. Fromtling, G. K. Abruzzo and A. Ruiz, Mycopathologia, 106 (1989) 163-166]. Plates of Kimmig's agar containing serial dilutions (25 to 0.01 μg/mL) of the drugs were inoculated with 10 μL of the fungal inocula and incubated at 25° C. […] for yeasts and up to 5 days for filamentous fungi. Following incubation, GMMICs (geometric mean minimum inhibitory concentration μg/mL) were determined. In the table POCZ indicates posaconazole, ITRZ indicates itraconazole, and FLUZ indicates fluconazole. [Patterson, T. F., S. G. Revankar, W. R. Kirkpatrick, O. Dib, A. W. Fothergill, S. W. Redding, D. A. Sutton, and M. G. Rinaldi, J. Clin. Microbiol. 34 (1996) 1794-1797].

[4] = tested on: Candida Krusei; experiment: as above; assay type: cell-based; settings: 22 organisms, Kimmig's agar, 25° C.
Experimental: as §2

[5] = tested on: Microsporum canis; experiment: as above; assay type: cell-based; settings: 6 organisms, Kimmig's agar, 25° C.
Experimental: as §2

[6] = tested on: Aspergillus Flavus; experiment: as above; assay type: cell-based; settings: 9 organisms, Kimmig's agar, 25° C.
Experimental: as §2

[7] = tested on: Trichophyton rubrum; experiment: as above; assay type: cell-based; settings: 17 organisms, Kimmig's agar, 25° C.
Experimental: as §2

Compound | IC50 [1] [nM] | IC50 [2] [nM] | other results
CC(O)C(C)n1ncn(-c2ccc(N3CCN(c4ccc(SCC5OCC(Cn6cncn6)(c6ccc(F)cc6F)O5)cc4)CC3)cc2)c1=O (centres unmarked) [I-Re (D), 4-(4-(4-(4-((4-((1H-1,2,4-triazol-1-yl)methyl)-4-(2,4-difluorophenyl)-1,3-dioxolan-2-yl)methylthio)phenyl)piperazin-1-yl)phenyl)-1-(3-hydroxybutan-2-yl)-1H-1,2,4-triazol-5(4H)-one] | 31.9 |  | 
CCC(C(C)O)n1ncn(-c2ccc(N3CCN(c4ccc(SCC5OCC(Cn6cncn6)(c6ccc(F)cc6F)O5)cc4)CC3)cc2)c1=O (centres unmarked) [I-Rf (D), 4-(4-(4-(4-((4-((1H-1,2,4-triazol-1-yl)methyl)-4-(2,4-difluorophenyl)-1,3-dioxolan-2-yl)methylthio)phenyl)piperazin-1-yl)phenyl)-1-(2-hydroxypentan-3-yl)-1H-1,2,4-triazol-5(4H)-one] | 33.4 | 9.9 | 
C=CC(C)n1ncn(-c2ccc(N3CCN(c4ccc(SCC5OCC(Cn6cncn6)(c6ccc(F)cc6F)O5)cc4)CC3)cc2)c1=O (centres unmarked) [I-Rg (D), 4-(4-(4-(4-((4-((1H-1,2,4-triazol-1-yl)methyl)-4-(2,4-difluorophenyl)-1,3-dioxolan-2-yl)methylthio)phenyl)piperazin-1-yl)phenyl)-1-(but-3-en-2-yl)-1H-1,2,4-triazol-5(4H)-one] | 33.8 | 10.2 | 
CCC(C)n1ncn(-c2ccc(N3CCN(c4ccc(CSC5OCC(Cn6cncn6)(c6ccc(F)cc6F)O5)cc4)CC3)cc2)c1=O (centres unmarked) [II-Ra (D), 4-(4-(4-(4-((4-((1H-1,2,4-triazol-1-yl)methyl)-4-(2,4-difluorophenyl)-1,3-dioxolan-2-ylthio)methyl)phenyl)piperazin-1-yl)phenyl)-1-sec-butyl-1H-1,2,4-triazol-5(4H)-one] | 34.3 | 10.3 | 
CCC(C(C)O)n1ncn(-c2ccc(N3CCN(c4ccc(CSC5OCC(Cn6cncn6)(c6ccc(F)cc6F)O5)cc4)CC3)cc2)c1=O (centres unmarked) [II-Rf (D), 4-(4-(4-(4-((4-((1H-1,2,4-triazol-1-yl)methyl)-4-(2,4-difluorophenyl)-1,3-dioxolan-2-ylthio)methyl)phenyl)piperazin-1-yl)phenyl)-1-(2-hydroxypentan-3-yl)-1H-1,2,4-triazol-5(4H)-one] | 31.1 | 9.8 | 
CCC(C)n1ncn(-c2ccc(N3CCN(c4ccc(OCC5COC(Cn6cncn6)(c6ccc(Cl)cc6Cl)O5)cc4)CC3)cc2)c1=O (centres unmarked) [ITRZ, itraconazole] |  |  | GMMICS (geometric mean minimum inhibitory concentration) [3]: 0.49 µg/mL; GMMICS (geometric mean minimum inhibitory concentration) [4]: 0.60 µg/mL; GMMICS (geometric mean minimum inhibitory concentration) [5]: 1.2 µg/mL; GMMICS (geometric mean minimum inhibitory concentration) [6]: 0.35 µg/mL; GMMICS (geometric mean minimum inhibitory concentration) [7]: 3.1 µg/mL
CC[C@@H]([C@H](C)O)n1ncn(-c2ccc(N3CCN(c4ccc(OC[C@@H]5CO[C@@](Cn6cncn6)(c6ccc(F)cc6F)C5)cc4)CC3)cc2)c1=O [POCZ, posaconazole, reference compound] |  | 11.8 | 

The next lines start with results.

IC50 [1] [nM] | IC50 [2] [nM] | Compound | other results
 | 9.6 | CC(O)C(C)n1ncn(-c2ccc(N3CCN(c4ccc(SCC5CCC(Cn6cncn6)(c6ccc(F)cc6F)O5)cc4)CC3)cc2)c1=O (centres unmarked) [I-Re (T), 4-(4-(4-(4-((5-((1H-1,2,4-triazol-1-yl)methyl)-5-(2,4-difluorophenyl)tetrahydrofuran-2-yl)methylthio)phenyl)piperazin-1-yl)phenyl)-1-(3-hydroxybutan-2-yl)-1H-1,2,4-triazol-5(4H)-one] | 
32.1 | 9.5 | CCC(C(C)O)n1ncn(-c2ccc(N3CCN(c4ccc(SCC5CCC(Cn6cncn6)(c6ccc(F)cc6F)O5)cc4)CC3)cc2)c1=O (centres unmarked) [I-Rf (T), 4-(4-(4-(4-((5-((1H-1,2,4-triazol-1-yl)methyl)-5-(2,4-difluorophenyl)tetrahydrofuran-2-yl)methylthio)phenyl)piperazin-1-yl)phenyl)-1-(2-hydroxypentan-3-yl)-1H-1,2,4-triazol-5(4H)-one] | 
32.9 | 9.3 | CCC(C(C)O)n1ncn(-c2ccc(N3CCN(c4ccc(CSC5CCC(Cn6cncn6)(c6ccc(F)cc6F)O5)cc4)CC3)cc2)c1=O (centres unmarked) [II-Rf (T), 4-(4-(4-(4-((5-((1H-1,2,4-triazol-1-yl)methyl)-5-(2,4-difluorophenyl)tetrahydrofuran-2-ylhio)methyl)phenyl)piperazin-1-yl)phenyl)-1-(2-hydroxypentan-3-yl)-1H-1,2,4-triazol-5(4H)-one] | 
